For 41 compounds, AC50, EC50 and CC50 results are on record in ChEMBL document CHEMBL1201862, “PubChem BioAssay data set” (2004).

A short description of data set [1]: Luminescence Cell-Based Dose Retest to Confirm Inhibitors of Cancer Stem Cells. [Related pubchem assays (depositor defined):AID2717, AID2721]. The format is functional. As to conditions: Homo sapiens.
Data set [2] concerns the target T1, Heat shock factor protein 1 (Mus musculus, UniProt P38532).
T1 sequence (P38532 whole entry): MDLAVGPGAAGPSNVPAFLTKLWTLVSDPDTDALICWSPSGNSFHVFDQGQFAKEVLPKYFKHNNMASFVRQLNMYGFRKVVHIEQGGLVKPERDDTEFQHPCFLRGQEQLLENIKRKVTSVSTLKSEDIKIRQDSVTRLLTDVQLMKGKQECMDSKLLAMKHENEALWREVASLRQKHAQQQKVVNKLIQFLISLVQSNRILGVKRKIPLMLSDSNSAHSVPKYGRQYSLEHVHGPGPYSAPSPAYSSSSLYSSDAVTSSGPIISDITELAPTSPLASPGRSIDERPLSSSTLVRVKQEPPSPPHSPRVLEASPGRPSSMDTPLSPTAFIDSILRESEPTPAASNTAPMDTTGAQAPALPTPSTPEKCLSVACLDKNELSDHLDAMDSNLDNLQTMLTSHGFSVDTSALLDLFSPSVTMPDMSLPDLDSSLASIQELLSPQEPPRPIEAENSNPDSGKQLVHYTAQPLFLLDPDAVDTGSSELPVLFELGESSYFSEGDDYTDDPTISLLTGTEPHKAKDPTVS
In words: HSF1 potentiators in luciferase reporter cells, confirmation, cell-based, NIH3T3, luminescence, dose retest (AID 435004).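 Note: stress induced by proteasome inhibitor MG132 added 30 min after compound; luciferase reporter driven by HSF1 response element in NIH3T3 cells; actives raise luminescence as potentiators of the MG132 stress response.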 The format is functional. (In general: In a reporter assay the amount or activity of a reporter protein is the signal.)

The target in data set [3] is Cytochrome P450 2C9 (Homo sapiens, UniProt P11712).
Cytochrome P450 2C9, sequence (P11712 whole entry): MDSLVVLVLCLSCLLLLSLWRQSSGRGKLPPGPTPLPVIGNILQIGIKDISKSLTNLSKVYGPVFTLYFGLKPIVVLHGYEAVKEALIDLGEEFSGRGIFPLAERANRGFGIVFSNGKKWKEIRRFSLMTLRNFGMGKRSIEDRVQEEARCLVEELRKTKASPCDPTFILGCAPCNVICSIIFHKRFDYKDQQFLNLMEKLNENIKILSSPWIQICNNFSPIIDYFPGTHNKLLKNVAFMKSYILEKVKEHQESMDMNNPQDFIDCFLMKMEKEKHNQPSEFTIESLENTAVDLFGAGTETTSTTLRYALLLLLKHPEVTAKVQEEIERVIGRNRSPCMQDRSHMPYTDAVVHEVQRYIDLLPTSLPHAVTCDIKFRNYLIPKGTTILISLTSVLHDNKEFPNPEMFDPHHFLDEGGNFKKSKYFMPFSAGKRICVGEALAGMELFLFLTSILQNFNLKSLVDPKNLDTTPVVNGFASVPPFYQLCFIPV
In data set [4] the target is Cytochrome P450 2C19 (Homo sapiens, UniProt P33261). In words: Cytochrome panel assay with activity outcomes. Panel member name: p450-cyp2c19 Compounds with AC50 equal or less than 10 uM are considered active. The format is functional.
Cytochrome P450 2C19, sequence (P33261 whole entry): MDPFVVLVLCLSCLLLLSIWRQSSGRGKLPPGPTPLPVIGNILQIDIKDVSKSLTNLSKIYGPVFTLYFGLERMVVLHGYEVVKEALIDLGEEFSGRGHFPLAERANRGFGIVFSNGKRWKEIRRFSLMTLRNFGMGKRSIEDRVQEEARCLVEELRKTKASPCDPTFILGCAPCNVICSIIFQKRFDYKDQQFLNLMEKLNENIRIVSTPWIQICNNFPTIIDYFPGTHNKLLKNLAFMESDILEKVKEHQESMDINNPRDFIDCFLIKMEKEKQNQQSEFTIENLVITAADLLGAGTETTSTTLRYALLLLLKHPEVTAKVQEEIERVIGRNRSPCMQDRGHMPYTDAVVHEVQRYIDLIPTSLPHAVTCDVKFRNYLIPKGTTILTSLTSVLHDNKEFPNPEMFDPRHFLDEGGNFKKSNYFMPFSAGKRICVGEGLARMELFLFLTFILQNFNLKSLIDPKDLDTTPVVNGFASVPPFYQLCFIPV
Data set [5] addresses Cytochrome P450 3A4 (Homo sapiens, UniProt P08684).
The nature of data set [6]: HEp-2 cell cytotoxicity, dose response, cytotoxicity control for RSV inhibitor project, HTS (AID 2410). The format is functional. As to conditions: human respiratory syncytial virus.
In data set [7] the target is T2, Streptokinase A (Streptococcus pyogenes serotype M1, UniProt P10520).
T2 sequence (P10520 whole entry): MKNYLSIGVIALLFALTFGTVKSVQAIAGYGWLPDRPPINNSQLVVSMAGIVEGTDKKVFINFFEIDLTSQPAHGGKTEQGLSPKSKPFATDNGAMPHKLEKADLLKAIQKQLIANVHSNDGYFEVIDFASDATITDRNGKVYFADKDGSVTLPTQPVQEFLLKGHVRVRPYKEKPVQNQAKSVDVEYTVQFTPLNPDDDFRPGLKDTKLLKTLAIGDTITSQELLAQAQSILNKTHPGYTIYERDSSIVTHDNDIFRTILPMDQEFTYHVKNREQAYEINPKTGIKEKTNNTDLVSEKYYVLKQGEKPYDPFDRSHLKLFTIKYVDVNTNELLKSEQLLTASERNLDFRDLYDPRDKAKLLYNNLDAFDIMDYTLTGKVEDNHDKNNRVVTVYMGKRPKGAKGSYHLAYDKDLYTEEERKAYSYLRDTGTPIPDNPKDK
Kind of data set: S. pyogenes streptokinase expression inhibitors, potency, dose response, plasminogen activation absorbance, OD405 (AID 1914).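 Note: secreted streptokinase activity via plasminogen activation per viability signal from cell pellet.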 Format: functional, Streptococcus pyogenes M1 GAS.

The subject of data set [8] is Streptococcus. Kind of data set: Group A Streptococcus viability loss, dose response, counter-screen for streptokinase expression inhibitor project, luminescence, BacTiterGlo (AID 1915).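 Note: potency for reduction of bacterial viability or growth.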 Format: functional, organism-based. (In general: The purpose of a counterscreen is to sort out artefacts and off-target activity.)
For data set [9], the system named is Streptococcus sp. 'group A'. Kind of data set: growth inhibition of control SK(-) GAS strain, dose response, counter-screen for streptokinase expression inhibitor project, luminescence, kanamycin, BacTiterGlo, confirmation (AID 1900). Format: functional, organism-based.
Data set [10] is described as follows: cytotoxicity toward NIH3T3 fibroblasts, dose response, counter-screen, cell-based, ATP luminescence, mouse fibroblasts (AID 2010).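 Note: cells exposed to compound for about 90 hours before reading.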 The format is functional.
The nature of data set [11]: inhibitors of intracellular T. cruzi replication, confirmation, NIH3T3 host cells, beta-gal luminescence (AID 2044).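 Note: intracellular parasites grown in NIH/3T3 mouse fibroblasts as host cells; luminescent beta-galactosidase reporter signal from transgenic T. cruzi replicating inside host cells; inhibitors lower the luminescence signal.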 Format: functional, cell-based.
In data set [12] the target is T3, Cytochrome P450 1A2 (Homo sapiens, UniProt P05177).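 Note: PubChem cytochrome P450 panel assay, CYP1A2 panel member.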
T3 sequence (P05177 whole entry): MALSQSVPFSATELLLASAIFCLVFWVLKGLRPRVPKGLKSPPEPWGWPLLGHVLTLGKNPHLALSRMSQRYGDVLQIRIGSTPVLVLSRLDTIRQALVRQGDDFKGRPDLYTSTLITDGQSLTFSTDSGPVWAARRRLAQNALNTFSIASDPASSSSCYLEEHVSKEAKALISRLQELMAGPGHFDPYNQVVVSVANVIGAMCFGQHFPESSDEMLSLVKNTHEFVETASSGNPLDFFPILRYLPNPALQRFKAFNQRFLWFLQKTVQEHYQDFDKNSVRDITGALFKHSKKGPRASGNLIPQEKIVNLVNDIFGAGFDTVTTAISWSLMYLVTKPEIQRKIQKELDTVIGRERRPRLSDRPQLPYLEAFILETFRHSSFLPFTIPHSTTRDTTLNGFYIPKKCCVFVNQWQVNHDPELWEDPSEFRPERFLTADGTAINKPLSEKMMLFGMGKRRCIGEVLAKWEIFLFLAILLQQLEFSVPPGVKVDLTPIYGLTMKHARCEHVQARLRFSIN

The source made the active and inactive calls. A value given as a limit tells only on which side of the number the result lay.

Cytochrome P450 3A4, sequence (P08684 whole entry): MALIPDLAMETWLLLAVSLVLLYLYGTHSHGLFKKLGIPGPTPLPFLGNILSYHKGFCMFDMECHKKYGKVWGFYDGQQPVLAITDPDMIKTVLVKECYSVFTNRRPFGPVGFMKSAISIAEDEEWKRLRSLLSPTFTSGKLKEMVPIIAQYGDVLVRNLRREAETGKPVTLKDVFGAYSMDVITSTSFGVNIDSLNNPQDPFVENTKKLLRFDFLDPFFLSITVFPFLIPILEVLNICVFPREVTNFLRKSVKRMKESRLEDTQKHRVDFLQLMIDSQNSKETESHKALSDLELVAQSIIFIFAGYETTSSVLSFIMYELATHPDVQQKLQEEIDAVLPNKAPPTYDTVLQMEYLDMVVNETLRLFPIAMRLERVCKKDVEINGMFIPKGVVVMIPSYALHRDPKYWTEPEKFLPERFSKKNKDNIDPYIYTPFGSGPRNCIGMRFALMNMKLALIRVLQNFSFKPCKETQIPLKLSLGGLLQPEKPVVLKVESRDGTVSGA

With `NC(=O)CC(NC(=O)Cc1cccc2ccccc12)c1ccc(NCc2ccc(F)c(F)c2)c([N+](=O)[O-])c1` (centres undefined), the concentration at half-maximal activity (AC50) – broadly, the concentration at which the activity in the assay is half-maximal – in [1] is 11.2 µM (active).
`O=C(CCc1ccc(S(=O)(=O)N2CCOCC2)cc1)N1CCN(Cc2ccc3c(c2)OCO3)CC1`: the EC50 (usually the concentration at which the effect is half-maximal) in data set [2] is > 260 µM (inactive).
Consider `COc1ccc2[nH]c3c(NCCCN4CCCC4=O)ncnc3c2c1`, for which the AC50 in [3] is 3.98 µM (inconclusive); in data set [4] (read-out: AC50), 39.8 µM (inconclusive); in [5] it was 17.8 µM (inconclusive).
In the case of `CC(C)NC(=O)c1c(O)c2cccc3c2n(c1=O)CCC3`, in [6], the 50% cytotoxic concentration (CC50) – broadly, the concentration at which the toxic effect on the cells reaches its halfway point – was 17.3 µM (active).
`O=C(CCC1N=C2c3ccccc3N=C(SCc3ccc(Cl)cc3)N2C1=O)NCc1ccco1` (centres undefined): the CC50 in [6] is 25.4 µM (active).
For `COc1ccc(NC(=O)c2[nH]cnc2C(=O)N[C@@H](CC(C)C)C(=O)OC(C)(C)C)cc1`, in data set [1], the AC50 is 7.16 µM (active). Also, the concentration for a half-maximal effect (EC50) in data set [7] was > 150 µM (not active); in data set [8], 11.6 µM (active); in data set [9] it was 4.08 µM (active).
Take `CCCc1cc(O)nc(SCC(=O)c2cc(C)n(C3CC3)c2C)n1`: the 50% cytotoxic concentration (CC50) in data set [6] was 43.1 µM (active).
The same measure, in the same setting: under `Clc1ccc2c(c1)C1OCCC1C(c1ccco1)N2` (centres undefined) stands 33.4 µM (active).
Consider `O=C(CCN1C(=O)C2C3C=CC(C3)C2C1=O)N1CCN(c2cccc(Cl)c2)CC1` (centres undefined), for which the values for the concentration at half-maximal activity (AC50) in data set [3] and in data set [4] (read-out: AC50) were 11.2 µM (inconclusive) and 25.1 µM (inconclusive), respectively.
As for `N#Cc1cccc(Nc2c3c(nc4ccccc24)CCCC3)c1`, the cytotoxic concentration (CC50) in data set [6] is 15.9 µM (active).
Take `CSc1nc2ccccc2n1CC(=O)Nc1cc(C(F)(F)F)ccc1N1CCOCC1`: the CC50 in data set [6] was 42.4 µM (active).
As for `COc1ccc(Br)cc1CN1CCCCCCC1`, the EC50 in data set [2] was > 260 µM (inactive).
For the compound `Cc1cccc(C(=O)NNC(=O)C(=O)NC(C)(C)C)c1`, the AC50 in data set [4] (read-out: AC50) is 11.2 µM (inconclusive).
On to `CCOC(=O)c1nn(-c2ccc(F)cc2)c(-c2ccccc2)c1C(=O)c1ccccc1`, for which the AC50 in [1] is 5.46 µM (active).
`FC(F)(F)c1cnc(Sc2nc3nccc(-c4ccc(Cl)cc4)n3n2)c(Cl)c1`: the figures for the 50% effective concentration (EC50) in data set [10], in data set [11] and in data set [2] were > 30 µM (not active), 1.72 µM (active) and > 260 µM (inactive), respectively.
With `COc1ccc(S(=O)(=O)Cc2ccc(C(=O)NCCCN(C)c3ccccc3)o2)cc1`, the EC50 in data set [2] is > 260 µM (inactive).
On the same count and under the same terms, under `COc1cc(/C=C/C(=O)c2c(O)ccc3c(C)cc(=O)oc23)ccc1O` stands 15 µM (active).
As to `Oc1ccc(Nc2nc(-c3ccccc3O)nc3ccccc23)cc1`, in data set [1], the AC50 is 2.71 µM (active).
For the compound `O=C(Nc1cc(Cl)ccc1O)C1CC(c2ccccc2Cl)=NO1` (centres undefined), the CC50 in data set [6] was > 50 µM (active).
As to `O=c1c(-c2ccc(F)cc2)nc2cnc(N3CCOCC3)nc2n1CCc1ccccc1`, the concentration at half-maximal activity (AC50) was 39.8 µM (inconclusive) in [4] (read-out: AC50) and 25.1 µM (inconclusive) in [12].
Take `CCOc1ccc(OCc2ccc(C(=O)N3CCc4ccccc4C3)o2)cc1`: the CC50 in [6] was 23.4 µM (active). Besides, the AC50 in data set [5] was 39.8 µM (inconclusive).
Consider `COC(=O)[C@@]1(Cc2ccccc2)[C@H]2c3cc(C(=O)N(C)C)n(Cc4ccc(S(C)(=O)=O)cc4)c3C[C@H]2CN1C(=O)c1ccccc1`, for which the results for the AC50 in data set [3], in [4] (read-out: AC50) and in data set [12] were 25.1 µM (inconclusive), 39.8 µM (inconclusive) and 31.6 µM (inconclusive), respectively.
In the case of `COc1ccc(-c2cc(C(=O)NCc3ccco3)c3ccccc3n2)cc1`, the EC50 in data set [2] is 158 µM (active).
In the case of `COc1ccccc1NC(=O)CC(=O)CSc1nnc(-c2ccc(C)cc2)n1C`, the CC50 in data set [6] is 17.7 µM (active).
With `Cc1ccc(OCCN2CCN(c3nc(NCc4ccco4)c4ccccc4n3)CC2)cc1`, the half-maximal activity concentration (AC50) in data set [1] is 4.7 µM (active). Further, the values for the EC50 in data set [10] and in data set [11] were 6.18 µM (active) and 1.35 µM (active), respectively.
For `O=c1cc(-c2ccccc2Cl)oc2c(NS(=O)(=O)c3cccs3)ccc(O)c12`, the 50% cytotoxic concentration (CC50) in data set [6] was 22 µM (active).
Regarding `CCC1(C)Cc2c(sc3nc(SC)n(Cc4ccccc4)c(=O)c23)CO1` (centres undefined), the AC50 in [1] is 0.259 µM (active).
Turning to `COc1ccc(Cc2nnc(SCC(=O)Nc3ccc(N4CCOCC4)cc3)o2)cc1`, the EC50 in [2] was > 260 µM (inactive).
Take `N#Cc1cccc(NC(=O)N2CCCC3(CCN(C(=O)Oc4ccccc4)CC3)C2)c1`: the half-maximal activity concentration (AC50) in [3] is 25.1 µM (inconclusive); in [4] (read-out: AC50), 25.1 µM (inconclusive); in [12], 15.8 µM (inconclusive); in [5] it was 12.6 µM (inconclusive).
On to `CCO[C@@H]1OC(C(=O)Nc2ccccc2)=C[C@H](c2csc3ccccc23)[C@H]1CCCO`, for which, in data set [6], the 50% cytotoxic concentration (CC50) is 22.4 µM (active).
Regarding `COc1cccc(NP(=O)(Oc2ccc(Cl)cc2)Oc2ccc(Cl)cc2)c1`, the AC50 in [1] is 3.11 µM (active). The 50% effective concentration (EC50) is 4.68 µM (active) in [7], 11.2 µM (active) in data set [8] and 6.17 µM (active) in data set [9].
Take `COc1cc(-n2ccnc2SC)c(Cl)cc1Cl`: the concentration at half-maximal activity (AC50) in data set [3] was 39.8 µM (inconclusive); in data set [4] (read-out: AC50), 7.08 µM (inconclusive); in [12], 15.8 µM (inconclusive).
For the compound `Cc1ccc(C(=O)NCC(C)NC(=O)c2ccc(C)c([N+](=O)[O-])c2)cc1[N+](=O)[O-]` (centres undefined), the EC50 in data set [2] is > 260 µM (inactive).
On to `C=CCc1ccc(OCC(O)CO)c(OC)c1` (centres undefined), for which, in [2], the EC50 is > 260 µM (inactive).
Consider `Oc1cccnc1Sc1cccc(C(F)(F)F)c1`, for which the 50% effective concentration (EC50) in [2] was 165 µM (active).
Turning to `Cc1ccccc1NC(S)=NN1CCN(C)CC1`, the concentration at half-maximal activity (AC50) in data set [4] (read-out: AC50) is 25.1 µM (inconclusive).
Consider `CN(/C(=N\S(=O)(=O)c1ccccc1)c1ccccc1)c1ccc(O)cc1`, for which the EC50 in data set [2] is > 260 µM (inactive).
As to `COc1ccccc1/C=C/C=N/n1c(S)nnc1-c1[nH]nc2c1CCC2`, in data set [1], the concentration at half-maximal activity (AC50) is 13.7 µM (active).
With `COC(=O)C1C(=O)C2=C(CC1C)N=C(C)/C(=C(/O)OCc1ccc(OC)cc1)C2c1ccc(C)o1` (centres undefined), the EC50 in data set [2] is > 260 µM (inactive).
As for `O=C(O)c1cc(O)c2c(Cl)cc(Cl)cc2n1`, the AC50 result in [4] is “inconclusive”; in data set [12], 39.8 µM (inconclusive).
Turning to `COc1cc(NC(=O)c2cc([N+](=O)[O-])ccc2NC(=O)CNC2CCCCC2C)cc(OC)c1` (centres undefined), the EC50 in [2] is > 260 µM (inactive).
